Source: publication PMC6445242, “Novel tetrazole and cyanamide derivatives as inhibitors of cyclooxygenase-2 enzyme: design, synthesis, anti-inflammatory evaluation, ulcerogenic liability and docking study” (Journal of Enzyme Inhibition and Medicinal Chemistry, 2017)
“Also recorded” adds a separate entry of the source.

Columns and labels:
ovine COX-2 = target: T1, ovine COX-2 (Ovis aries, UniProt P79208); test: In vitro COX-2 inhibition assay (EIA kit, Cayman); details: for IC50: IC50 COX-2, ovine COX-2, mean of two determinations; for SI, COX-2 selectivity index (COX-1 IC50/COX-2 IC50): ovine enzymes
T1 sequence (P79208 17-603): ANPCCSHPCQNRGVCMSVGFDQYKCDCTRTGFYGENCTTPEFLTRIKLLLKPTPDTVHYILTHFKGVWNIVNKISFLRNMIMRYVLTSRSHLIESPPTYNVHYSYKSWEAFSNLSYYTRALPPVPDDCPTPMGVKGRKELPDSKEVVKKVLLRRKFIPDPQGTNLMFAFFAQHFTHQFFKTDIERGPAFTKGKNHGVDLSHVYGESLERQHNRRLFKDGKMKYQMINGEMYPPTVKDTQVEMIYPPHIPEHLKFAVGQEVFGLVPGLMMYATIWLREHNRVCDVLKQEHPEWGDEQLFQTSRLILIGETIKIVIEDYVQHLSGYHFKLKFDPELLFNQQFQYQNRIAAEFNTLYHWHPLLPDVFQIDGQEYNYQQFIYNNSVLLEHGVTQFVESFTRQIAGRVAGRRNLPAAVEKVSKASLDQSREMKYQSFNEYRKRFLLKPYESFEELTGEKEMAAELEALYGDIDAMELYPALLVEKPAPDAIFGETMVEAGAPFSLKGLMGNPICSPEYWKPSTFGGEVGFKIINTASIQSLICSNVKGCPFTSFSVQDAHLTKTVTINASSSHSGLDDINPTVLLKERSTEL
Protocol: (§1) The peroxidase activity of cyclooxygenase enzyme isoforms was measured using the COX activity assay kit. The ability of the test compounds to inhibit both ovine COX-1 and COX-2 enzymes was explored in vitro using a colorimetric enzyme immunoassay (EIA) kit. The appearance of oxidised N,N,N′,N′-tetramethyl-p-phenylenediamine (TMPD) was monitored at 590 nm. The kit includes isozyme-specific inhibitors for distinguishing COX-2 activity from that of COX-1.

rat's gastric tissue = test: Histopathological investigation of stomach; assay type: in vivo; details: haematoxylin and eosin, after ulcerogenic liability dosing
Protocol: Whole rats stomach were collected, selected stomach samples from each rat were fixed in 10% neutral buffered formalin for 48 h and routinely processed for paraffin embedding. 5 μm Thickness sections were obtained then stained with haematoxylin and eosin for histopathological evaluation.

abdominal writhings = test: Acetic acid-induced writhing test (peripheral analgesic activity); details: 10 mg/kg oral, mice, 0.6% acetic acid i.p.
Description: Pain was induced by intraperitoneal injection of acetic acid, then counting the number of abdominal writhings.

[1] = tested on: carrageenan-induced paw oedema; test: Carrageenan-induced rat paw oedema; assay type: in vivo; details: 50 mg/kg oral; for %Inhibition of paw oedema, 1h / Paw thickness change mean ± SEM, 1h: 1 h after carrageenan; for Paw thickness change mean ± SEM, 1h / Paw thickness change mean ± SEM, 3h / Paw thickness change mean ± SEM, 5h: n = 4; for %Inhibition of paw oedema, 3h / Paw thickness change mean ± SEM, 3h: 3 h after carrageenan; for %Inhibition of paw oedema, 5h / Paw thickness change mean ± SEM, 5h: 5 h after carrageenan
Protocol: Female wister rats (150-200 g) were used in this study. The animals were kept at controlled conditions (temperature 23 ± 2 °C, humidity 60 ± 10%) and a 12/12-h light/dark cycle with access to food and water. All procedures relating to animal care and treatments were performed according to protocols approved by the Research Ethical Committee of Faculty of Pharmacy Beni-Suef University (2014-Beni-Suef, Egypt). The anti-inflammatory activity of the synthesised compounds was determined in vivo by […]-induced paw oedema method in rats[49]. Rats were divided into 21 groups of four animals each, and then, they were fasted overnight with free access to water before the experiment. Before any drug administration, thickness of the left hind paw of each rat was measured in millimetres. Group 1 served as a control and administered the vehicle (2.5% Tween 80).

[2] = tested on: gastric mucosa (ulcer number, ulcer index); test: Ulcerogenic liability; assay type: in vivo, rat; details: 50 mg/kg oral, three successive days, rats; for Ulcer index: sum of % incidence, average severity and average number of ulcers
Protocol: Female wister rats (150–200 g) were used in this study. The animals were kept at controlled conditions (temperature 23 ± 2 °C, humidity 60 ± 10%) and a 12/12-h light/dark cycle with access to food and water. All procedures relating to animal care and treatments were performed according to protocols approved by the Research Ethical Committee of Faculty of Pharmacy Beni-Suef University (2014-Beni-Suef, Egypt).
[…]. Forty-eight rats were used in this study, divided into 12 groups and fasted for 18 h before drug administration. The control group received the vehicle (2.5% Tween 80). Other groups received test compounds, celecoxib or indomethacin at a dose of 50 mg/kg, then animals were fed after 2 h. Rats were given the specified dose orally for three successive days. Rats were sacrificed after 2 h of the last dose, then the stomach of each rat was removed and opened along the greater curvature for determination of the ulcer number and ulcer index according to the reported method.

ovine COX-1 = target: T2, ovine COX-1 (Ovis aries, UniProt P05979); test: In vitro COX-1 inhibition assay (EIA kit, Cayman)
T2 sequence (P05979 25-600): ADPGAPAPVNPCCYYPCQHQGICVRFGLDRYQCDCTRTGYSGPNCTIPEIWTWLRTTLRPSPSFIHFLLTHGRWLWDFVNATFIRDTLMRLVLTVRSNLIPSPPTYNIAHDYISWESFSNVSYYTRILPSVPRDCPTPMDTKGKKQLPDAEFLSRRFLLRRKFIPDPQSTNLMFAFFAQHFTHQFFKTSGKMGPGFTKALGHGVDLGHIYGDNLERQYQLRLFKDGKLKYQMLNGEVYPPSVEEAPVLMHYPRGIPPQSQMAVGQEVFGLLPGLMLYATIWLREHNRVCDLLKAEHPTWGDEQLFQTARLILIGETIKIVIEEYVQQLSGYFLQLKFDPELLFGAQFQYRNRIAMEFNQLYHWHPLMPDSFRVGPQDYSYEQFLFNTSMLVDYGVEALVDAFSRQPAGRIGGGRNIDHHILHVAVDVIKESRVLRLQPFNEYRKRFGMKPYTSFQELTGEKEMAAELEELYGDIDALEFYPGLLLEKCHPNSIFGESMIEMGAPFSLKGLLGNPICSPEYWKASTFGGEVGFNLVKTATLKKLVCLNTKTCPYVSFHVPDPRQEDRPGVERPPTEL
Protocol: as §1

[3] = tested on: latency time of pain response; test: Hot plate method (central analgesic activity); assay type: in vivo; details: 10 mg/kg oral, mice, hot plate 55 °C, after 60 min
Protocol: This method was used to evaluate the central analgesic activity by determination of the delay in the latency time of pain response. […] After 60 min, the animals were placed on a hot plate maintained at 55 ± 0.5 °C. The reaction time was recorded as the time taken by the animals to […] or lick the fore or hind paw or jump off the plate.

COX-2 = details: cited from earlier work
[4] = cited from earlier work

SMILES | IC50 (ovine COX-2) [µM] | SI, COX-2 selectivity index (COX-1 IC50/COX-2 IC50) (ovine COX-2) | melting point [°C] | IC50 (ovine COX-1) [µM] | Histopathological findings in stomach (rat's gastric tissue) | Peripheral analgesic activity (writhing) (abdominal writhings) | %Inhibition of paw oedema, 1h [1] [%] | Paw thickness change mean ± SEM, 1h [1] [mm] | %Inhibition of paw oedema, 3h [1] [%] | Paw thickness change mean ± SEM, 3h [1] [mm] | %Inhibition of paw oedema, 5h [1] [%] | Paw thickness change mean ± SEM, 5h [1] [mm] | Average number of ulcers [2] | Ulcer index [2] | Central analgesic activity (delay in latency time) [3] | COX-2/COX-1 selectivity (SI) (COX-2) | Gastric ulceration side effect [4]
COc1ccc(-c2cc(-c3ccc(-n4cnnn4)cc3)[nH]c(=O)c2C#N)cc1OC [Compound 5e, 6-[4-(1H-Tetrazol-1-yl)phenyl]-4-(3,4-dimethoxyphenyl)-2-oxo-1,2-dihydropyridine-3-carbonitrile] |  | 37.57 | 272 to 274 | 7.14 | affect only muscular layer of the stomach by causing corrugation and hyalinosis in some muscle bundles and reach to coagulative necrosis | most active | 71 | 0.45 ± 0.16 | 42 | 0.98 ± 0.03 | 49 | 0.68 ± 0.08 | 1.00 | 1.25 | potent analgesic activities |  | 
O=C1OCC(c2ccc(-c3nnn[nH]3)cc2)=C1c1ccccc1 [VI] |  |  |  |  |  |  |  |  |  |  |  |  |  |  |  | 2.11 | lacked the side effect of gastric ulceration
Cc1ccc(-c2cc(C(F)(F)F)nn2-c2ccc(-c3nnn[nH]3)cc2)cc1 [V] |  |  |  |  |  |  |  |  |  |  |  |  |  |  |  | 2.16 | lacked the side effect of gastric ulceration

Second part, led by results:

IC50 (ovine COX-2) [µM] | SI, COX-2 selectivity index (COX-1 IC50/COX-2 IC50) (ovine COX-2) | melting point [°C] | IC50 (ovine COX-1) [µM] | SMILES | Histopathological findings in stomach (rat's gastric tissue) | Peripheral analgesic activity (writhing) (abdominal writhings) | %Inhibition of paw oedema, 1h [1] [%] | Paw thickness change mean ± SEM, 1h [1] [mm] | %Inhibition of paw oedema, 3h [1] [%] | Paw thickness change mean ± SEM, 3h [1] [mm] | %Inhibition of paw oedema, 5h [1] [%] | Paw thickness change mean ± SEM, 5h [1] [mm] | Average number of ulcers [2] | Ulcer index [2] | Central analgesic activity (delay in latency time) [3] | COX-2/COX-1 selectivity (SI) (COX-2) | Gastric ulceration side effect [4]
0.45 | 25.13 | 263 to 265 | 11.3 | CN(C)c1ccc(-c2cc(-c3ccc(-n4cnnn4)cc3)[nH]c(=O)c2C#N)cc1 [Compound 5d, 6-[4-(1H-Tetrazol-1-yl)phenyl]-4-[4-(dimethylamino)phenyl]-2-oxo-1,2-dihydropyridine-3-carbonitrile] | Mucous degeneration in gastric glandular epithelium, thickening and hyalinosis of basement membrane, as well as eosinophilic infiltrations in submucosa | most active | 71 | 0.45 ± 0.10 | 63 | 0.61 ± 0.12 | 43 | 0.76 ± 0.15 | 1.25 | 1.50 |  |  | 
0.33 | 21.54 | 226 to 228 | 7.11 | COc1ccc(C2CC(c3ccc(-n4cnnn4)cc3)=NN2c2ccc(S(N)(=O)=O)cc2)cc1OC (stereo not shown) [Compound 9a, 4-{3-[4-(1H-Tetrazol-1-yl)phenyl]-5-(3,4-dimethoxyphenyl)-4,5-dihydro-1H-pyrazol-1-yl)benzenesulphonamide] | sever congestion in blood capillaries and lymphocytic infiltration; also recorded: caused destructive effect on the mucosa and ulceration | most active | 75 | 0.40 ± 0.00 | 39 | 1.03 ± 0.09 | 19 | 1.08 ± 0.20 | 1.25 | 2.00 |  |  | 
